According to US11802111B2, “Cyclobutyl amide monoacylglycerol lipase modulators” (Janssen Pharmaceutica NV, priority 2020, dated 2023):

These compounds were tested against human MGL from HeLa cells (Homo sapiens (Human), UniProt Q99685) (assay: MGL in vitro activity assay ([glycerol-1,3-3H]-oleoyl glycerol hydrolysis, activated carbon filtration)). Conditions: 300 nM [Glycerol-1,3-3H]-oleoyl glycerol, one hour.
Format: biochemical
In short: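 Activity measured as tritium in the flow-through after activated carbon filtration of a 1 h reaction containing 300 nM 3H-oleoyl glycerol, compound and HeLa-derived human MGL. Compounds screened at 10 μM; IC50 series start at an empirically chosen highest concentration.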

human MGL from HeLa cells, sequence (Q99685 whole entry): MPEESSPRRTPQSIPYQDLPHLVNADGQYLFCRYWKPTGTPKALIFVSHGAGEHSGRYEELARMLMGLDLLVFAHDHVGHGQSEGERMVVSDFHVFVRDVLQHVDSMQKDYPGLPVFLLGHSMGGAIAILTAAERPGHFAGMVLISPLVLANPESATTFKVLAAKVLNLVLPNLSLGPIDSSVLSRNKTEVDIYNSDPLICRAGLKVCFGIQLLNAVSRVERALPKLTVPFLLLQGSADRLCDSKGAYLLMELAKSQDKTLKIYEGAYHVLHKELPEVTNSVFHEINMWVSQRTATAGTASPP

| IC50 [nM] | SMILES |
| --- | --- |
| 26 | Cc1ccc2ccn(CC3CC4(C3)CN(C(=O)[C@H]3C[C@@](C)(O)C3)C4)c2n1 [Example 288, ((1s,3s)-3-Hydroxy-3-methylcyclobutyl)(6-((6-methyl-1H-pyrrolo[2,3-b]pyridin-1-yl)methyl)-2-azaspiro[3.3]heptan-2-yl)methanone] |
| 2.1 | Cc1cccc(C(F)(F)F)c1CC1CC2(C1)CN(C(=O)[C@H]1C[C@@](C)(O)C1)C2 [Example 226, ((1s,3s)-3-Hydroxy-3-methylcyclobutyl)(6-(2-methyl-6-(trifluoromethyl)benzyl)-2-azaspiro[3.3]heptan-2-yl)methanone] |
| 20 | C[C@]1(O)C[C@@H](C(=O)N2CC3(CC(Cn4ccc5ccc(C(F)(F)F)nc54)C3)C2)C1 [Example 295, ((1s,3s)-3-Hydroxy-3-methylcyclobutyl)(6-((6-(trifluoromethyl)-1H-pyrrolo[2,3-b]pyridin-1-yl)methyl)-2-azaspiro[3.3]heptan-2-yl)methanone] |
| 60 | Cc1cc(C(F)F)cc(C2CCC3(C2)CN(C(=O)[C@H]2C[C@@](C)(O)C2)C3)c1 (mixture of isomers) [Example 94, (rac)-(6-(3-(Difluoromethyl)-5-methylphenyl)-2-azaspiro[3.4]octan-2-yl)((1s,3s)-3-hydroxy-3-methylcyclobutyl)methanone] |
| 56 | C[C@]1(O)C[C@@H](C(=O)N2CC3(CC(Cc4ccc5ccccc5n4)C3)C2)C1 [Example 198, ((1s,3s)-3-Hydroxy-3-methylcyclobutyl)(6-(quinolin-2-ylmethyl)-2-azaspiro[3.3]heptan-2-yl)methanone] |
| 33 | COc1cc(C2CCC3(CC2)CN(C(=O)[C@H]2C[C@@](C)(O)C2)C3)ccc1C1CC1 [Example 140, (7-(4-Cyclopropyl-3-methoxyphenyl)-2-azaspiro[3.5]nonan-2-yl)((1s,3s)-3-hydroxy-3-methylcyclobutyl)methanone] |
| 149 | C[C@@H](c1ccccc1)[C@@H]1CCC2(C1)CN(C(=O)[C@H]1C[C@@](C)(O)C1)C2 (single isomer, unassigned) [Example 337, ((1s,3*S)-3-Hydroxy-3-methylcyclobutyl)((*R)-6-((*R)-1-phenylethyl)-2-azaspiro[3.4]octan-2-yl)methanone] |
| 9.4 | CCc1cc(OC(F)(F)F)cc(C2CCC3(CC2)CN(C(=O)[C@H]2C[C@@](C)(O)C2)C3)c1 [Example 148, (7-(3-Ethyl-5-(trifluoromethoxy)phenyl)-2-azaspiro[3.5]nonan-2-yl)((1s,3s)-3-hydroxy-3-methylcyclobutyl)methanone] |
| 27 | Cc1ccc(C2CCC3(C2)CN(C(=O)[C@H]2C[C@@](C)(O)C2)C3)cc1C(F)F (mixture of isomers) [Example 92, (rac)-(6-(3-(Difluoromethyl)-4-methylphenyl)-2-azaspiro[3.4]octan-2-yl)((1s,3s)-3-hydroxy-3-methylcyclobutyl)methanone] |
| 33 | COc1cc(OC2CCC3(CC2)CN(C(=O)[C@H]2C[C@@](C)(O)C2)C3)ccc1C [Example 408, ((1s,3s)-3-Hydroxy-3-methylcyclobutyl)(7-(3-methoxy-4-methylphenoxy)-2-azaspiro[3.5]nonan-2-yl)methanone] |
| 43 | Cc1ccccc1CC1CCC2(C1)CN(C(=O)[C@H]1C[C@@](C)(O)C1)C2 (mixture of isomers) [Example 175, (rac)-((1s,3s)-3-Hydroxy-3-methylcyclobutyl)(6-(2-methylbenzyl)-2-azaspiro[3.4]octan-2-yl)methanone] |
| 3.6 | C[C@]1(O)C[C@@H](C(=O)N2CC3(CC(Cc4ccccc4C4CC4)C3)C2)C1 [Example 271, (6-(2-Cyclopropylbenzyl)-2-azaspiro[3.3]heptan-2-yl)((1s,3s)-3-hydroxy-3-methylcyclobutyl)methanone] |
| 32 | Cc1nc(OC2CCC3(CC2)CN(C(=O)[C@H]2C[C@@](C)(O)C2)C3)ccc1C(F)F [Example 438, (7-((5-(Difluoromethyl)-6-methylpyridin-2-yl)oxy)-2-azaspiro[3.5]nonan-2-yl)((1s,3s)-3-hydroxy-3-methylcyclobutyl)methanone] |
| 12 | Cc1ccc(CC2CC3(C2)CN(C(=O)[C@H]2C[C@@](C)(O)C2)C3)cc1F [Example 229, (6-(3-Fluoro-4-methylbenzyl)-2-azaspiro[3.3]heptan-2-yl)((1s,3s)-3-hydroxy-3-methylcyclobutyl)methanone] |
| 949 | Cn1cnc2cc(C3CCC4(C3)CN(C(=O)[C@H]3C[C@@](C)(O)C3)C4)ccc21 (mixture of isomers) [Example 111, (rac)-((1s,3s)-3-Hydroxy-3-methylcyclobutyl)(6-(1-methyl-1H-benzo[d]imidazol-5-yl)-2-azaspiro[3.4]octan-2-yl)methanone] |
| 169 | C[C@]1(O)C[C@@H](C(=O)N2CC3(CC(Cc4cccc(C(F)(F)F)n4)C3)C2)C1 [Example 223, ((1s,3s)-3-Hydroxy-3-methylcyclobutyl)(6-((6-(trifluoromethyl)pyridin-2-yl)methyl)-2-azaspiro[3.3]heptan-2-yl)methanone] |

| IC50 [nM] | SMILES |
| --- | --- |
| 40 | C[C@]1(O)C[C@@H](C(=O)N2CC3(CCC(Cc4ccccc4)CC3)C2)C1 [Example 235, (7-Benzyl-2-azaspiro[3.5]nonan-2-yl)((1s,3s)-3-hydroxy-3-methylcyclobutyl)methanone] |
| 20 | Cc1cccc(OC2CCC3(CC2)CN(C(=O)[C@H]2C[C@@](C)(O)C2)C3)c1C [Example 406, (7-(2,3-Dimethylphenoxy)-2-azaspiro[3.5]nonan-2-yl)((1s,3s)-3-hydroxy-3-methylcyclobutyl)methanone] |
| 23 | Cc1cccc(CC2CCC3(C2)CN(C(=O)[C@H]2C[C@@](C)(O)C2)C3)c1 (mixture of isomers) [Example 174, (rac)-((1s,3s)-3-Hydroxy-3-methylcyclobutyl)(6-(3-methylbenzyl)-2-azaspiro[3.4]octan-2-yl)methanone] |
| 112 | Cc1c(C2CC3(C2)CN(C(=O)[C@H]2C[C@@](C)(O)C2)C3)cccc1C(F)(F)F [Example 21, ((1s,3s)-3-Hydroxy-3-methylcyclobutyl)(6-(2-methyl-3-(trifluoromethyl)phenyl)-2-azaspiro[3.3]heptan-2-yl)methanone] |
| 185 | Cn1ncc2c(C3CCC4(C3)CN(C(=O)[C@H]3C[C@@](C)(O)C3)C4)cccc21 (mixture of isomers) [Example 326, (rac)-((1s,3s)-3-Hydroxy-3-methylcyclobutyl)(6-(1-methyl-1H-indazol-4-yl)-2-azaspiro[3.4]octan-2-yl)methanone] |
| 26 | COc1cc(F)cc(C2CCC3(CC2)CN(C(=O)[C@H]2C[C@@](C)(O)C2)C3)c1 [Example 104, (7-(3-Fluoro-5-methoxyphenyl)-2-azaspiro[3.5]nonan-2-yl)((1s,3s)-3-hydroxy-3-methylcyclobutyl)methanone] |
| 14 | C[C@]1(O)C[C@@H](C(=O)N2CC3(CCC(c4ccc(F)c(C5CC5)c4)C3)C2)C1 (mixture of isomers) [Example 108, (rac)-(6-(3-Cyclopropyl-4-fluorophenyl)-2-azaspiro[3.4]octan-2-yl)((1s,3s)-3-hydroxy-3-methylcyclobutyl)methanone] |
| 20 | Cc1c(F)cccc1CC1CC2(C1)CN(C(=O)[C@H]1C[C@@](C)(O)C1)C2 [Example 227, (6-(3-Fluoro-2-methylbenzyl)-2-azaspiro[3.3]heptan-2-yl)((1s,3s)-3-hydroxy-3-methylcyclobutyl)methanone] |
| 67 | Cc1cc2cccnc2n1CC1CC2(C1)CN(C(=O)[C@H]1C[C@@](C)(O)C1)C2 [Example 287, ((1s,3s)-3-Hydroxy-3-methylcyclobutyl)(6-((2-methyl-1H-pyrrolo[2,3-b]pyridin-1-yl)methyl)-2-azaspiro[3.3]heptan-2-yl)methanone] |
| 25 | COc1cc(C2CCC3(CC2)CN(C(=O)[C@H]2C[C@@](C)(O)C2)C3)ccc1C [Example 129, ((1s,3s)-3-Hydroxy-3-methylcyclobutyl)(7-(3-methoxy-4-methylphenyl)-2-azaspiro[3.5]nonan-2-yl)methanone] |
| 2.1 | CC(C)(C)c1cccc(C2CCC3(CC2)CN(C(=O)[C@H]2C[C@@](C)(O)C2)C3)c1 [Example 135, (7-(3-(tert-Butyl)phenyl)-2-azaspiro[3.5]nonan-2-yl)((1s,3s)-3-hydroxy-3-methylcyclobutyl)methanone] |
| 19 | C[C@]1(O)C[C@@H](C(=O)N2CC3(CCC(Cc4ccc(OC(F)F)cc4)CC3)C2)C1 [Example 161, (7-(4-(Difluoromethoxy)benzyl)-2-azaspiro[3.5]nonan-2-yl)((1s,3s)-3-hydroxy-3-methylcyclobutyl)methanone] |
| 431 | C[C@]1(O)C[C@@H](C(=O)N2CC3(CC(Cc4ccc5cnn(CC(F)(F)F)c5c4)C3)C2)C1 [Example 307, ((1s,3s)-3-Hydroxy-3-methylcyclobutyl)(6-((1-(2,2,2-trifluoroethyl)-1H-indazol-6-yl)methyl)-2-azaspiro[3.3]heptan-2-yl)methanone] |
| 130 | C[C@@H](c1ccc2cnn(C)c2c1)C1CC2(C1)CN(C(=O)[C@H]1C[C@@](C)(O)C1)C2 (stereo in doubt) [Example 314, ((1s,3*S)-3-Hydroxy-3-methylcyclobutyl)(6-((*R)-1-(1-methyl-1H-indazol-6-yl)ethyl)-2-azaspiro[3.3]heptan-2-yl)methanone] |
| 3.5 | Cc1ccc(CC2CC3(C2)CN(C(=O)[C@H]2C[C@@](C)(O)C2)C3)cc1C(F)(F)F [Example 189, ((1s,3s)-3-Hydroxy-3-methylcyclobutyl)(6-(4-methyl-3-(trifluoromethyl)benzyl)-2-azaspiro[3.3]heptan-2-yl)methanone] |
| 97 | Cn1ccc2ccc(C3CCC4(CC3)CN(C(=O)[C@H]3C[C@@](C)(O)C3)C4)nc21 [Example 384, ((1s,3s)-3-Hydroxy-3-methylcyclobutyl)(7-(1-methyl-1H-pyrrolo[2,3-b]pyridin-6-yl)-2-azaspiro[3.5]nonan-2-yl)methanone] |
